In ChEMBL document CHEMBL5113375, “Development of Mcl-1 inhibitors for cancer therapy” (Eur J Med Chem, 2021):
Where “and” joins values, the source holds several entries; their conditions need not be identical. Identical values can stand only once. Each block holds one compound with its values, some of them ahead of it.

Experiments:
[1] = biological target: Apoptosis regulator Bcl-2/Bcl-2 homologous antagonist/killer (Homo sapiens, UniProt P10415+Q16611); experiment: Inhibition of Bcl-2/Bak (unknown origin); type: protein assay
BCL2A1/BAK1 = biological target: T1, BCL2A1/BAK1 (Homo sapiens, UniProt Q16548+Q16611); experiment: Inhibition of Bfl-1/Bak (unknown origin); type: protein assay
T1 sequence (Q16611 whole entry): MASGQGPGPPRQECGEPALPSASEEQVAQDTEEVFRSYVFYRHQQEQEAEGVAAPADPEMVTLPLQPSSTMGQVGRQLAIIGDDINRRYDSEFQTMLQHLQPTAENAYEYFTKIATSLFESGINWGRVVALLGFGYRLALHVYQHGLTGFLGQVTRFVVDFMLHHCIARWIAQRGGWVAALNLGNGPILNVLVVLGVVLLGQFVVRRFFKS
T1 sequence (Q16548 whole entry): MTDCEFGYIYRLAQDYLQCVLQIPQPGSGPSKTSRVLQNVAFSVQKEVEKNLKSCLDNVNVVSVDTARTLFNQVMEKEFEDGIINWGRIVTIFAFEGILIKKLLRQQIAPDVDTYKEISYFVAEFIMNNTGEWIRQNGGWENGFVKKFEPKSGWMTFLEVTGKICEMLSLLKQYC

BCL2L2/BID = biological target: T2, BCL2L2/BID (Homo sapiens, UniProt P55957+Q92843); experiment: Binding affinity to Bcl-W/Bid (unknown origin) by fluorescence polarization assay; type: protein assay
T2 sequence (Q92843 whole entry): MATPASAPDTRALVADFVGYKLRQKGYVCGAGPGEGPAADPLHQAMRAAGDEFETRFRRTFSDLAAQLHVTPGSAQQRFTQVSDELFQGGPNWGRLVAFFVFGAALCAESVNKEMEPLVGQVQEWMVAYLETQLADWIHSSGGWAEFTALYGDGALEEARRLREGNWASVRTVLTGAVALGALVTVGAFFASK
T2 sequence (P55957 whole entry): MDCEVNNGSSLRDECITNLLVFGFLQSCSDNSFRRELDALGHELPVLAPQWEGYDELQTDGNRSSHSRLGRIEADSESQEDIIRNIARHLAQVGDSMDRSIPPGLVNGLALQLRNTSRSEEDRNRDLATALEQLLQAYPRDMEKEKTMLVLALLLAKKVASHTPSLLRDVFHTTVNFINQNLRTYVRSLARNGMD

[2] = Inhibition of Mcl-1 (172 - 327 residues)/Noxa (unknown origin) by fluorescence polarization assay; parameters: species or system Homo sapiens
[3] = biological target: Bcl-xL/BH3-interacting domain death agonist (Homo sapiens, UniProt Q07817); experiment: Inhibition of Bcl-xL/Bid complex (unknown origin); type: protein assay
Bcl-xL/BAK [4] = biological target: T3, Bcl-xL/BAK (Homo sapiens, UniProt Q07817); experiment: Inhibition of Bcl-xL/Bak (unknown origin) by fluorescence polarization assay; type: protein assay
MCL1-BAK1 complex [5] = biological target: T4, MCL1-BAK1 complex (Homo sapiens, UniProt Q07820); experiment: Inhibition of Mcl-1/Bak (unknown origin) by fluorescence polarization assay; type: protein-complex assay
MCL1-BAK1 complex [6] = biological target: T4, MCL1-BAK1 complex; experiment: Binding affinity to Mcl-1/Bak (unknown origin) assessed as inhibition constant by fluorescence polarization assay; type: protein-complex assay
Bcl-xL/BAK [7] = biological target: T3, Bcl-xL/BAK; experiment: Binding affinity to Bcl-xL/Bak (unknown origin) assessed as dissociation constant by ITC method; type: protein assay
[8] = biological target: T5, Induced myeloid leukemia cell differentiation protein Mcl-1/Bcl-2-like protein 11 (Homo sapiens, UniProt Q07820); experiment: Inhibition of Mcl-1/Bim (unknown origin) by ELISA method; type: protein assay
[9] = biological target: T6, Bcl-xL/Bcl-2-like protein 11 (Homo sapiens, UniProt Q07817); experiment: Inhibition of Bcl-xL/Bim (unknown origin) by ELISA method; type: protein assay
[10] = biological target: T7, Induced myeloid leukemia cell differentiation protein Mcl-1 (Homo sapiens, UniProt Q07820); experiment: Binding affinity to Mcl-1 (unknown origin) assessed as inhibition constant by fluorescence polarization assay
[11] = Cytotoxicity against human MOLP8 cells by caspase-3/7 activation; type: functional, cell-based; conditions: MOLP-8
[12] = biological target: T7, Induced myeloid leukemia cell differentiation protein Mcl-1; experiment: Binding affinity to wildtype Mcl-1 (unknown origin) assessed as dissociation constant by SPR analysis
[13] = Binding affinity to Mcl-1 H224A (unknown origin) assessed as dissociation constant by SPR analysis; parameters: species or system Homo sapiens
[14] = biological target: T8, Induced myeloid leukemia cell differentiation protein Mcl-1/BH3-interacting domain death agonist (Homo sapiens, UniProt Q07820); experiment: Binding affinity to Mcl-1/Bid (unknown origin) assessed as inhibition constant by fluorescence polarization assay; type: protein assay
BCL2/BID [15] = biological target: T9, BCL2/BID (Homo sapiens, UniProt P10415); experiment: Binding affinity to Bcl-2 /Bid (unknown origin) assessed as inhibition constant by fluorescence polarization assay; type: protein assay
BCL2/BID [16] = biological target: T9, BCL2/BID; experiment: Binding affinity to Bcl-2/Bid (unknown origin) by fluorescence polarization assay; type: protein assay
[17] = biological target: T8, Induced myeloid leukemia cell differentiation protein Mcl-1/BH3-interacting domain death agonist; experiment: Binding affinity to Mcl-1/Bid (unknown origin) by fluorescence polarization assay; type: protein assay
[18] = biological target: T6, Bcl-xL/Bcl-2-like protein 11; experiment: Inhibition of GST-tagged Bcl-xL/Bim (unknown origin) incubated for 15 mins followed by Bim addition measured after 2 hrs by ELISA method; type: protein assay
[19] = biological target: T5, Induced myeloid leukemia cell differentiation protein Mcl-1/Bcl-2-like protein 11; experiment: Inhibition of GST-tagged Mcl-1/Bim (unknown origin) incubated for 15 mins followed by Bim addition measured after 2 hrs by ELISA method; type: protein assay

T5 sequence (Q07820 whole entry): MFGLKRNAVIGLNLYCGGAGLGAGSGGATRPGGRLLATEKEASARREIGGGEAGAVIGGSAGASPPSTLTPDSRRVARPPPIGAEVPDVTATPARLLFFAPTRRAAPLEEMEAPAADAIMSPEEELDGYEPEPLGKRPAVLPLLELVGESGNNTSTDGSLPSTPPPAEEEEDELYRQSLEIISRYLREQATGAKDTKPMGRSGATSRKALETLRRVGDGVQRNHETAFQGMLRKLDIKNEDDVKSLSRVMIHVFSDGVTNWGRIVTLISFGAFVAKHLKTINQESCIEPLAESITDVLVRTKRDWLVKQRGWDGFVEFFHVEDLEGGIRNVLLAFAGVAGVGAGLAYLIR
T5 sequence (O43521 whole entry, further chain): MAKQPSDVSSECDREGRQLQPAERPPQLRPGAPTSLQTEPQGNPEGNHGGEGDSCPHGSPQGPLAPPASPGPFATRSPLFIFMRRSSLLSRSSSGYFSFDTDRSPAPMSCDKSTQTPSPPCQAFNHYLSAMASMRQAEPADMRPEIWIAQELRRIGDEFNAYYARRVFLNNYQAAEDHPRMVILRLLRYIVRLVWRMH
T4 sequence (Q07820 whole entry, one chain of several): as the sequence (Q07820 whole entry) above
T7 sequence (Q07820 whole entry): as above
T3 sequence (Q07817 whole entry, one chain of several): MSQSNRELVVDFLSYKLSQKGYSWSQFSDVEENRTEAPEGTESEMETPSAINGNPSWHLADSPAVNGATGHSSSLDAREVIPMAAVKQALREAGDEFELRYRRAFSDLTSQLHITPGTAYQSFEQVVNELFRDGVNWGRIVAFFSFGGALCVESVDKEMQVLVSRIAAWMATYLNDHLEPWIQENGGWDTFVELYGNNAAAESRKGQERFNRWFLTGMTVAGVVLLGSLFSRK
T6 sequence (Q07817 whole entry): as the sequence (Q07817 whole entry, one chain of several) above
T6 sequence (O43521 whole entry, further chain): as the sequence (O43521 whole entry, further chain) above
T9 sequence (P10415 whole entry, one chain of several): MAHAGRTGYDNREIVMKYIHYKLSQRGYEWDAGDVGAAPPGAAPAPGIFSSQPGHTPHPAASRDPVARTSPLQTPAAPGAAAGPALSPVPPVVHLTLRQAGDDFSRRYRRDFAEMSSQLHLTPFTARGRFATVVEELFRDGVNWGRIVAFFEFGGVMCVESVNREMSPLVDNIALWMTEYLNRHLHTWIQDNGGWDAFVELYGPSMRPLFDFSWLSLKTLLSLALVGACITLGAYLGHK
T8 sequence (Q07820 whole entry, one chain of several, the tested form may be a part): as the sequence (Q07820 whole entry) above
Sequence of Apoptosis regulator Bcl-2/Bcl-2 homologous antagonist/killer (P10415 whole entry, one chain of several): as the sequence (P10415 whole entry, one chain of several) above
Sequence of Bcl-xL/BH3-interacting domain death agonist (Q07817 whole entry, one chain of several, the tested form may be a part): as the sequence (Q07817 whole entry, one chain of several) above

- Ki (BCL2L2/BID): 37500 nM
Compound: O=C(O)CSc1cc(NS(=O)(=O)c2cccs2)c2ccccc2c1O

- IC50 [2]: 500 nM
Compound: Cc1ccc(-c2ccc(C(=O)O)c(NS(=O)(=O)c3ccc(Oc4ccccc4)cc3)c2)c2ccccc12

- IC50 [2]: 60 nM
Compound: Cc1ccc(-c2ccc(C(=O)O)c(NS(=O)(=O)c3ccc(OCCCN4CCOCC4)cc3)c2)c2ccccc12

- IC50 [2]: 30 nM
Compound: Cc1ccc(-c2ccc(C(=O)O)c(NS(=O)(=O)c3ccc(OCCn4cccn4)cc3)c2)c2ccccc12

- IC50 [2]: 400 nM
Compound: Cc1ccc(-c2ccc(C(=O)O)c(NS(=O)(=O)c3ccccc3)c2)c2ccccc12

- Ki [10]: 200 nM
Compound: CCOC(=O)C1=C(C)N=c2s/c(=C\c3cn(Cc4ccc(-c5ccccc5)cc4)c4ccccc34)c(=O)n2C1c1ccccc1 (configuration not stated)

- Kd [12]: 430 nM
- Kd [13]: 410 nM
Compound: N#CC1=C(C#N)c2ccc(Sc3ccc(Br)cc3)c3cccc(c23)C1=O

- Ki [10]: 298 nM
- Ki (BCL2/BID [16]): 1200 nM
Compound: O=C(NCCNS(=O)(=O)c1sccc1-c1ccccc1Oc1ccc(O)c(O)c1)Nc1cc(C(F)(F)F)cc(C(F)(F)F)c1
- Ki [17]: 330 nM

- Ki (MCL1-BAK1 complex [6]): 261000 nM
Compound: CC(C)COc1nc(Oc2ccccc2)ccc1C(=O)O

More lines, now with the values behind:

Compound: CC1=C(C2=C(C)C(=O)c3c(cc(O)c(O)c3Cc3ccccc3)C2=O)C(=O)c2cc(O)c(O)c(Cc3ccccc3)c2C1=O
- IC50 [1]: 31000 nM
- IC50 (BCL2A1/BAK1): 25000 nM

Compound: Cc1cs/c(=N\C2CCCCC2)n1/N=C/c1ccc(O)c(O)c1O
- IC50 [3]: > 50000 nM

Compound: CC(C)C(C(=O)O)N1C(=O)/C(=C/c2ccc(Br)cc2)SC1=S (configuration not stated)
- IC50 (Bcl-xL/BAK [4]): 91000 nM
- IC50 (MCL1-BAK1 complex [5]): 110000 nM
- Ki (MCL1-BAK1 complex [6]): 44000 nM
- Kd (Bcl-xL/BAK [7]): 8700 nM

Compound: O=C(c1ccccc1O)c1[nH]c(Cl)c(Cl)c1-n1c(C(=O)c2ccccc2O)cc(Cl)c1Cl
- IC50 [8]: 12700 nM and 12500 nM
- IC50 [9]: 19700 nM and 12000 nM

Compound: CCc1nn(C)c(CC)c1-c1cccc2c(CCCOc3cccc4ccccc34)c(C(=O)O)n(CCN3CCOCC3)c12
- IC50 [11]: 350 nM

Compound: CC(=O)c1cc(OCc2nn(C)c(C)c2-c2cccc3c(CCCOc4cccc5ccccc45)c(C(=O)O)[nH]c23)ccc1B(O)O
- IC50 [11]: 170 nM

Compound: Cc1c(-c2cccc3c(CCCOc4cccc5ccccc45)c(C(=O)O)[nH]c23)c(COc2ccc(B(O)O)cc2)nn1C
- IC50 [11]: > 11000 nM

Compound: Cc1c(-c2cccc3c(CCCOc4cccc5ccccc45)c(C(=O)O)[nH]c23)c(COc2ccc(B(O)O)c(C=O)c2)nn1C
- IC50 [11]: 460 nM

Compound: Cc1c(-c2cccc3c(CCCOc4cccc5ccccc45)c(C(=O)O)n(C)c23)c(COc2ccc(B(O)O)c(C=O)c2)nn1C
- IC50 [11]: 75 nM

Compound: N#CC1=C(C#N)c2ccc(N3CCSCC3)c3cccc(c23)C1=O
- Ki [14]: 58 nM
- Ki (BCL2/BID [15]): 310 nM

Compound: CCOC(=O)CSc1ccc(C(=O)c2[nH]c(Cl)c(Cl)c2-n2cc(Cl)c(Cl)c2C(=O)c2ccc(SCC(=O)OCC)cc2O)c(O)c1
- IC50 [18]: 1200 nM
- IC50 [19]: 1800 nM

Compound: C[n+]1cc2cc3c(cc2c2ccc4cc5c(cc4c21)OCO5)OCO3
- IC50 (Bcl-xL/BAK [4]): 19000 nM
- IC50 (MCL1-BAK1 complex [5]): 44000 nM
